Data: US20040014637A1, “Mechanism for the inactivation of insulin receptor and uses in the treatment of type II diabetes” (McGill University, priority 1998, published 2004)

Assays:
insulin receptor = biological target: T1, insulin receptor (Rattus norvegicus, UniProt P15127); assay: 125I-insulin binding after preincubating endosomes (ENs containing IR) with nucleotides; details: Table 2; addition 10 mM, 37° C. 15 min; normalized to endosomes without nucleotide
T1 construct: from tissue; host or cells: rat liver; endosome (EN) and plasma membrane (PM) fractions
T1 sequence (P15127 27-759 limits assumed): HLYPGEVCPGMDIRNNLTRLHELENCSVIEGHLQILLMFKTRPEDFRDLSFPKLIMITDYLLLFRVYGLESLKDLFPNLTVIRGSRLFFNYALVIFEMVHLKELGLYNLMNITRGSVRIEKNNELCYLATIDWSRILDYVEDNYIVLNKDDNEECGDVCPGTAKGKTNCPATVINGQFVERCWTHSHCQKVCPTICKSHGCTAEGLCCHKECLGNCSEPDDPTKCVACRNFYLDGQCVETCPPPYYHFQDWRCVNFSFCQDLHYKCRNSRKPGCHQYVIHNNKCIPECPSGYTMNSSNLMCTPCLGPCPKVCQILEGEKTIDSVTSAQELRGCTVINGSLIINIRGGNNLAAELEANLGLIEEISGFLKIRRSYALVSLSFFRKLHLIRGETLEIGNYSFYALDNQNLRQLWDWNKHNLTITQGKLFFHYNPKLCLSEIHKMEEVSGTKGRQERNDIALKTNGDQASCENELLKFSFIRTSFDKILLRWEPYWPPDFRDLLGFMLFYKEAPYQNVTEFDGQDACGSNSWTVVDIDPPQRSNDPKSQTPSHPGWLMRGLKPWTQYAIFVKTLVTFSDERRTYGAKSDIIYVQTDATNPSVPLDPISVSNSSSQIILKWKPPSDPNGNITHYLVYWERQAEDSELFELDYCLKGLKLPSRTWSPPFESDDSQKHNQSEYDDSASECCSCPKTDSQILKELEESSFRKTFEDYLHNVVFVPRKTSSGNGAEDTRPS
T1 sequence (P15127 764-1383 limits assumed): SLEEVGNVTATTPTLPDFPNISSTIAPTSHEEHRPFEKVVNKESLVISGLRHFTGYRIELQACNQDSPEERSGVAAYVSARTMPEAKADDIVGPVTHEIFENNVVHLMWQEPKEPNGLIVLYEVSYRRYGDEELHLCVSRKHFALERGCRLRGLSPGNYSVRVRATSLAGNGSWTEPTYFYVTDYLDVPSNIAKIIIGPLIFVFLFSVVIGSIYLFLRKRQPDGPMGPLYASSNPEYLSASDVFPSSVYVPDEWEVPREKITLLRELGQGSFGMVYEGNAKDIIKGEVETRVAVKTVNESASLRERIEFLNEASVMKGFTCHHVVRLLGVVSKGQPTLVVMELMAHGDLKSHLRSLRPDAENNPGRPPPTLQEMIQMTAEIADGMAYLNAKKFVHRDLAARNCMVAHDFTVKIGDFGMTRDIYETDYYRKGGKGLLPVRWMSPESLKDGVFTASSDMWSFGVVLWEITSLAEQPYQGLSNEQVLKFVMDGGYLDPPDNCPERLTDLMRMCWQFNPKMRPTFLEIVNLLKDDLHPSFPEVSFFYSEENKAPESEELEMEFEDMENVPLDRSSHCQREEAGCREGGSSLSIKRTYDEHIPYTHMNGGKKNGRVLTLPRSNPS
Procedure: Rats were anaesthetized with ether and were injected via jugular vein with a dose (per 100 g body weight) of insulin (1.5 μg), or bpV(phen) (0.6 μmol), dissolved in 0.2 ml. phosphate buffered saline (pH 7.4) −0.1% BSA. […] Livers were rapidly excised, placed in ice-cold homogenizing buffer (50 mM HEPES (pH 7.4), 0.25 M sucrose, 1 mM PMSF, 1 MM MgCl2, 1 mM benzamidine) and minced before homogenization. […] These subcellular fractions have been characterized in detail both morphologically and biochemically.
After 10 min at room temperature, the reactions was terminated by spotting 50 μl aliquots on Whatman 3 MM filters.
In the present study we wished to assess whether other processes might be involved in reducing the association of intraendosomal insulin with its receptor. We examined the effect of incubating intact ENs containing IR with increasing concentrations of ATP on subsequently measured insulin and hGH binding in both solubilized and WGA-purified receptors.

[1] = biological target: T2, insulin receptor kinase (IRK) (Rattus norvegicus, UniProt P15127); assay: Insulin receptor kinase (IRK) exogenous tyrosine kinase activity, Poly (Glu:Tyr) (4:1) substrate, WGA-purified IRK from preincubated cell fractions; assay type: biochemical
T2 construct: from tissue; host or cells: rat liver; endosome (EN) and plasma membrane (PM) fractions
T2 sequence (P15127 27-759 limits assumed): as the sequence (P15127 27-759 limits assumed) above
T2 sequence (P15127 764-1383 limits assumed): as the sequence (P15127 764-1383 limits assumed) above

[2] = biological target: T3, insulin receptor kinase (IRK) β-subunit (Rattus norvegicus, UniProt P15127); assay: IRK β-subunit phosphotyrosine content (αPY immunoblot of WGA eluates); assay type: biochemical
T3 construct: from tissue; host or cells: rat liver; endosome (EN) and plasma membrane (PM) fractions
T3 sequence (P15127 27-759 limits assumed): as the sequence (P15127 27-759 limits assumed) above
T3 sequence (P15127 764-1383 limits assumed): as the sequence (P15127 764-1383 limits assumed) above
Procedure: The phosphotyrosine content of endosomal IRs (ENs containing IR) was determined by subjecting lectin column (WGA-Sepharose™)-purified preparations to SDS-PAGE and immunoblotting with α960 and αPY (Faure et al. (1992) J. Biol. Chem. 267, 11215-11221). […] FIG. 1B illustrates the effect of ATP on β subunit phosphotyrosine content. WGA eluates (5 μg protein) were subjected to SDS-PAGE in 7.5% gels followed by transfer of proteins to Immobilon-P membranes. Membranes were probed with αPY or α960 antibodies followed by incubation with ^125I-GAR as second antibody and exposed for autoradiography.

[3] = treatment of Type II diabetic patients; cited from earlier work
[4] = tested on: intraendosomal insulin degradation; details: cited from earlier work

## Nc1ncnc2c1ncn2[C@@H]1O[C@H](COP(=O)(O)OP(=O)(O)O)[C@@H](O)[C@H]1O [ADP]
Insulin receptor
  125I-Insulin specific binding (%), Solubilized endosomes: 96.3 ± 6.4%
  125I-Insulin specific binding (%), WGA-purified endosomes: 82.7 ± 5.2%

## Nc1ncnc2c1ncn2[C@@H]1O[C@H](COP(=O)(O)OP(=O)(O)CP(=O)(O)O)[C@@H](O)[C@H]1O [AMP—P—C—P]
Insulin receptor
  125I-Insulin specific binding (%), Solubilized endosomes: 109.1 ± 0.9%
  125I-Insulin specific binding (%), WGA-purified endosomes: 95.1 ± 2.0%
[1]; 5 mM AMP-P-C-P, in the presence or absence of 1 mM ATP
  Effect on level of IRK activity (FIG. 2): no effect

## Nc1ncnc2c1ncn2[C@@H]1O[C@H](COP(=O)(O)OP(=O)(O)NP(=O)(O)O)[C@@H](O)[C@H]1O [AMP—P—N—P]
Insulin receptor
  125I-Insulin specific binding (%), Solubilized endosomes: 112.2 ± 2.8%
  125I-Insulin specific binding (%), WGA-purified endosomes: 99.1 ± 1.0%

## Nc1ncnc2c1ncn2[C@@H]1O[C@H](CO)[C@@H](O)[C@H]1O [Adenosine, adenosine]
Insulin receptor
  125I-Insulin specific binding (%), Solubilized endosomes: 94.5 ± 4.1%
  125I-Insulin specific binding (%), WGA-purified endosomes: 105.9 ± 3.3%

## CO/C1=C\C(C)=C\[C@@H](C)[C@@H](O)[C@@H](C)C/C(C)=C/C=C/[C@H](OC)[C@@H]([C@@H](C)[C@@H](O)[C@H](C)[C@@]2(O)C[C@@H](O)[C@H](C)[C@@H](C(C)C)O2)OC1=O [Bafilomycin A1]
[1]; 1 μM Bafilomycin A1 preincubation 30 min 37° C., then 5 and 10 mM ATP 15 min
  Effect on ability of ATP to reduce IRK activation (FIG. 4A): marked attenuation
[1]; ENs containing IR incubated with 5 mM ATP
  Effect on inhibition of IRK tyrosine phosphorylation and activity by 5 mM ATP: completely reversed
[1]; preincubation with 1 μM Bafilomycin A1, 30 min 37° C. (without: 1.3)
  IRK activity in ENs after preincubation, before ATP additions: 1.4 pmol/10 min/10 fmol insulin binding
[2]; in the presence of Bafilomycin (1 μM), 5 mM ATP
  Level of IRK tyrosine phosphorylation at 5 mM ATP (FIG. 4B): comparable to that observed at 1 mM ATP

## O=P([O-])([O-])OP(=O)([O-])[O-].[Na+].[Na+].[Na+].[Na+] [NaPiPi, sodium pyrophosphate]
Insulin receptor
  125I-Insulin specific binding (%), WGA-purified endosomes: 97.8 ± 2.3%

## O.O.O.OO.OO.[K+].[OH-].[V].c1cnc2c(c1)ccc1cccnc12 [bpV(phen)]
[1]; coincubation of ENs with 0.1 mM bpV(phen)
  Effect on suppression of IRK activity by 5 mM ATP (FIG. 6A): did not prevent
[1]; rats given bpV(phen) 0.6 μmol/100 g body weight i.v., ENs at 15 min
  IRK activity of ENs isolated from pretreated rats: augmented IRK activity
[2]; bpV(phen) 0.1 mM in vitro or rats pretreated
  Effect on reduction in β-subunit tyrosine phosphorylation by 5 mM ATP (FIG. 6B): did not influence the reduction

## CCN(CC)CCCC(C)Nc1ccnc2cc(Cl)ccc12 (stereo not shown) [chloroquine]
[3]
  Glucose metabolism in Type II diabetic patients: improve glucose metabolism
[4]
  Intraendosomal insulin degradation: inhibits intraendosomal insulin degradation
